Data reported in patent US8192935B2, “Methods for assessing cisplatin resistance, disease progression, and treatment efficacy in ovarian cancer as related to MetAP2 expression” (The Penn State Research Foundation, priority 2003, dated 2012).
“And” between values parts separate entries of the source, which are not always exact repeats. Equal values may be shown once. Read-outs that look alike come from different tables or passages of the source.

Experiments:
[1] = test system: OVCA 429 cells; settings: for 429: increased sensitivity to cis-platin: OVCA 429 cells with specific siRNA
[2] = test system: OVCAR-3 cells; assay: tumor growth of OVCAR-3 cells in nude mice; type: in vivo; settings: cis-platin 4 μg/kg IP 3 times a week for 2 weeks, then 1 week no treatment; one mouse
Method: The following protocol was developed for examining tumor growth using OVCAR-3 cells and nude mice: OVCAR-3 cells (15 million/injection) were inoculated under upper arm region of nude mice. Visible lumps appeared after 25 days. The tumors were measurable at about 35 days after inoculation and animals were then either treated with cis-platin at 4 μg/kg body weight administered by IP injection 3 times a week for 2 weeks, followed by 1 week with no treatment or treated with saline solution alone as control. […] A photograph of the tumors before and after cis-platin treatment is also shown.

[3] = test system: zinc finger protein 262/MYM (AB007885); assay: siRNA-mediated knockdown of gene expression; type: cell-based, human; settings: OVCA 429 cells
[4] = test system: OVCAR-3 cells; assay: MTT assay, cis-platin sensitivity with siRNA; type: cell-based, human; settings: OVCAR-3 cells with specific siRNA
[5] = test system: eIF5 (U49436); assay: siRNA-mediated knockdown of gene expression; type: cell-based, human; settings: OVCA 429 cell

Row | Molecule | IC50 ([1]; read-out: IC50 of cis-platin alone, OVCA 429, 4 hours exposure (FIG. 40)) | IC50 ([1]; read-out: IC50 of cis-platin, controls without specific siRNA or inhibitor, OVCA 429, 24 hour exposure, siPORT only or sense strand only) | tumor size [2] | reduction of zinc finger protein 262/MYM mRNA levels compared to control [3] | 429: increased sensitivity to cis-platin [1] | OVCAR-3: increased sensitivity to cis-platin [4] | reduction of eIF5 mRNA levels compared to control [5]
1 | N.N.[Cl][Pt][Cl] [cis-platin] | ~100 µM | 25 to 50 µM and 25 µM and ~25 µM | stabilization of the tumor size |  |  |  | 
2 | Zinc finger protein 262/MYM siRNA #3: siRNA to zinc finger protein 262/MYM; target sequence AAAATATGGGAACCTACAATA (guide AAAATATGGGAACCTACAATA; target site or template, no part of the molecule; listed as DNA, chemistry not given here; listed as Homo Sapiens) |  |  |  | approximately 45% | yes | yes | 
3 | eIF5 siRNA #1: siRNA to eIF5; target sequence AATGACCGTTACATTGTCAAT (guide AATGACCGTTACATTGTCAAT; target site or template, no part of the molecule; listed as DNA, chemistry not given here; listed as Homo Sapiens) |  |  |  |  | yes | yes | approximately 59%
